We go through four compounds from patent EP2087894B1, “FORMULATIONS COMPRISING PICEID ABLE TO PREVENT AND INHIBIT LIPID PEROXIDATION” (Glures S.R.L., priority 2008, dated 2009).

A short description of data set [1]: Spin labelling (EPR) with n-SASL to find the position in the membrane. The class given is physicochemical. The settings on record: for position of the reactive hydroxyl group in the bilayer: EPR, DPPC liposomes; for location of the molecule in the bilayer: EPR spectra of n-SASL (positions 5, 7, 10, 12, 16) in DPPC liposomes. How it is done:
(§1) As the antioxidant efficacy of both products is related to their partitioning between the water and lipid phase and to their position in the membrane bilayer, an investigation was carried out on the interactions of resveratrol and piceid in multilamellar liposomes of saturated L-alpha-phosphatidylcholine (PC) of various chain lengths (dimyristoyl, DMPC; dipalmitoyl, DPPC; distearoyl, DSPC) to determine: a) partition coefficients of the stilbenes between liposomes and water; b) modification of lipid bilayer organization; c) their position in the membrane using differential calorimetric analysis (DSC) and spin labelling (EPR).

Data set [2] in a line: Inhibition of linoleic acid peroxidation, followed by oxygen consumption after thermal initiation by ABIP. The data set is classed as biochemical. The settings on record: 37 °C; for decrease in oxygen consumption (inhibition of lipid peroxidation): radical reaction thermally initiated by ABIP, after addition of antioxidant. How it is done: The effect of the antioxidants on lipid peroxidation was verified by measuring the quantity of oxygen consumed at 37 °C as a consequence of the radical reaction thermally initiated by ABIP.

Data set [3] in a line: Reaction with free radicals and radical initiators before they activate lipid peroxidation. The class given is biochemical. The text has this: (§2) With DHHP, the radical neutralizing activity was instead followed spectrophotometrically by measuring the initial rate (Vo) of the disappearance of its characteristic band at 515 nm. […] It was also required to verify whether the two products examined are able to react with the free radical initiators before the latter activate lipid peroxidation in the membrane.

A short description of data set [4]: Differential calorimetric analysis (DSC) of the gel-to-fluid transition of liposomes. The data set is classed as physicochemical. The settings on record: DMPC, DPPC, DSPC multilamellar liposomes at increasing stilbene concentrations. How it is done: as §1
The nature of data set [5]: Partition coefficients of the stilbenes between liposomes and water. The class given is physicochemical. The settings on record: for partitioning between water and lipid phase: liposomes / water. Here is the method: as §1
A short description of data set [6]: Free radical neutralization followed spectrophotometrically (disappearance of the band at 515 nm). The class given is biochemical. The settings on record: radical neutralizing activity, spectrophotometric.
Excerpt: as §2

In the case of `Cc1cc(C(C)(C)C)c(O)c(C(C)(C)C)c1` [BHT, 2,6-di-tert-butyl-4-methyl-phenol, reference compound], in data set [1], the “position of the reactive hydroxyl group in the bilayer” value (from here on “position”) is reported as “located more deeply”. Moreover, the “decrease in oxygen consumption (inhibition of lipid peroxidation)” value (from here on “decrease … (inhibition of lipid peroxidation)”) in data set [2] was “brief initial period of strong inhibition”.
Consider `OC[C@H]1O[C@@H](Oc2cc(O)cc(/C=C/c3ccc(O)cc3)c2)[C@H](O)[C@@H](O)[C@@H]1O` [piceid], for which the “reactivity with the free radicals and radical initiators under examination” value in data set [3] (in water, before initiators activate lipid peroxidation in the membrane) was “react with all the free radicals and radical initiators under examination”. Besides, the “effectiveness (quantitative evaluations)” value in data set [3] (piceid compared with resveratrol) is on record as “more effective than resveratrol”. For the same compound, the “DSC profiles of the gel-to-fluid state transition” value in data set [4] was “broadened and shifted towards lower temperatures”. In data set [1], the “location of the molecule in the bilayer” value is “located in the hydrophobic region of the bilayer although piceid is closer to the hydrophilic region” and the “position” value was “very close to the two double bonds of the polyunsaturated fatty acids (PUFA)”. Further, the “hydrophobicity from partition coefficient measurements” value in data set [5] (between liposomes and water) is “less hydrophobic than resveratrol”. Also, in data set [5], the “partitioning between water and lipid phase” value was “sufficiently lipophilic to partition themselves almost exclusively in the lipid phase”. In data set [2] (ABIP-initiated, compared with vitamin E and BHT), the “duration of the inhibitory effect on oxygen consumption” value is “more prolonged effect over time”. Besides, the “decrease … (inhibition of lipid peroxidation)” value in data set [2] is “steady decrease in oxygen consumption greater than that of vitamin E and BHT”. The “initial rate (Vo) of the disappearance of its characteristic band at 515 nm” value in data set [6] is on record as “comparable to those of BHT (although lower than those of vitamin E)”.
For `Oc1ccc(C=Cc2cc(O)cc(O)c2)cc1` [resveratrol], in data set [4], the “DSC profiles of the gel-to-fluid state transition” value is “broadened and shifted towards lower temperatures”. Also, in data set [1], the “location of the molecule in the bilayer” value is “located in the hydrophobic region of the bilayer” and the “position” value was “very close to the two double bonds of the polyunsaturated fatty acids (PUFA)”. The “partitioning between water and lipid phase” value in data set [5] was “sufficiently lipophilic to partition themselves almost exclusively in the lipid phase”.
Take `Cc1c(C)c2c(c(C)c1O)CC[C@@](C)(CCC[C@H](C)CCC[C@H](C)CCCC(C)C)O2` [vitamin E, alpha-tocopherol, reference compound]: the “position” value in data set [1] is “more displaced towards the polar surface”. In data set [2], the “decrease … (inhibition of lipid peroxidation)” value was “brief initial period of strong inhibition”.
